What was measured:
[1] = target: T1, sigma-2 receptor/transmembrane protein 97 (TMEM97) (Rattus norvegicus, UniProt Q5U3Y7); assay: radioligand competition with [3H]DTG plus […]; assay type: binding
T1 sequence (Q5U3Y7 1-176): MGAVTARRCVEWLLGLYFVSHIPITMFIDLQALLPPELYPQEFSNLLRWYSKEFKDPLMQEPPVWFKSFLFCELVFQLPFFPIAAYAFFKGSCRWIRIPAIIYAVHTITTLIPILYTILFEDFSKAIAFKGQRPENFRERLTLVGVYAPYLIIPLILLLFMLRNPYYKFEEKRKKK

sigma-1 receptor = sigma-1 receptor (Rattus norvegicus, UniProt Q9R0C9); assay: radioligand competition with [3H]-; assay type: binding
sigma-1 receptor, sequence (Q9R0C9 whole entry): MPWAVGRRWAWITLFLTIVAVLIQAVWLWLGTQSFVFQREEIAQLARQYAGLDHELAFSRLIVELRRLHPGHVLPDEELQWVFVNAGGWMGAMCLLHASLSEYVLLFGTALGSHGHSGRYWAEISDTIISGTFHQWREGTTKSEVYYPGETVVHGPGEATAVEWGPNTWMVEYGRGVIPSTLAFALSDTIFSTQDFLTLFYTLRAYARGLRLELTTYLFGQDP

O=c1oc2cc(NC(=S)Nc3ccc4c(c3)oc(=O)n4CCCCN3CCN(c4ccc(F)cc4)CC3)ccc2n1CCCCN1CCN(c2ccc(F)cc2)CC1 [MAM03055A, 1,3-bis(3-(4-(4-(4-fluorophenyl)piperazin-1-yl)butyl)-2-oxo-2,3-dihydrobenzo[d]oxazol-6-yl)thiourea]
Ki [1]: 0.0559 µM | Ki (sigma-1 receptor): 3.37 µM
